Assay results taken from patent US9925130B2, “Composition with zinc amino acid/trimethylglycine halide precursors” (Colgate-Palmolive Company, priority 2012, dated 2018).

Columns and labels:
C. minutissimum = test: Zone of inhibition test on TSA plates; type: cell-based; conditions: Table 3, sample type not given
Protocol: (§1) A zone of inhibition test is conducted on several materials: zinc oxide and amino acid hydrohalide alone and a mixture formed from zinc oxide and amino acid hydrohalide. The method involves making a lawn of freshly prepared bacterial culture on TSA (trypticase soy agar) plates. Sterile filter paper discs are seeded with 20 μl of test sample (supernatant or mixture). Sample-coated filter paper discs are air dried and applied onto the bacterial lawn on TSA plates. Plates are incubated for 20 hours at 37° C.
Similar antibacterial efficacy is seen when tetrabasic zinc chloride is used in place of zinc oxide as the source of zinc ions.

S. aureus = test: Zone of inhibition test on TSA plates; type: cell-based
Protocol: as §1

S. epider. = test: Zone of inhibition test on TSA plates; type: cell-based; conditions: 20 h 37° C.
Protocol: as §1

C. xerosis = test: Zone of inhibition test on TSA plates; type: cell-based; conditions: 20 h 37° C.
Protocol: as §1

[1] = target: Bovine Serum Albumin (BSA) (Bos taurus, UniProt P02769); test: Flocculation of ZLC in the presence of protein (BSA): turbidity and pH; type: physicochemical; conditions: for observation / pH / Turbidity (NTU): ZLC about 15 mg/ml, 5 hours 37° C.
Protocol: Turbidity and pH of solutions are measured 5 hours after the mixtures were placed in a 37° C. oven, and the results are shown in Table 6.

[2] = Hydrolysis reaction: pH and turbidity of diluted ZLC solutions before and after aging; type: physicochemical; conditions: for pH after aging / turbidity after aging (NTU): 37° C. over 5 hours
Protocol: A 185 mg/ml solution of ZLC is prepared and diluted several-fold and aged in a 37° C. oven over 5 hours for turbidity studies. […] Turbidity of the solutions is measured using a nephelometer, results being given in nephelometric turbidity units (NTU).
The precipitates formed in the 8×, 16× and 32× diluted solutions are collected by centrifugation and identified as crystalline ZnO by PXRD. From the supernatant, a single crystal is grown and shown by X-ray diffraction to be Lysine Monohydrochloride Dihydrate (Lysine.HCl.2H2O).

[3] = Solubilization of zinc: free Zn2+ in supernatant by atomic absorption; type: physicochemical; conditions: dispersed in water, equilibrated overnight
Source text: Ingredients are dispersed in water, equilibrated overnight, and the supernatant analyzed for free Zn^2+ by atomic absorption.

[4] = sample 1: DI water, 0% BSA, pH 6.4
[5] = sample 3: 1% BSA, pH adjusted to 5.1

Chain of Bovine Serum Albumin (BSA) (P02769 25-607): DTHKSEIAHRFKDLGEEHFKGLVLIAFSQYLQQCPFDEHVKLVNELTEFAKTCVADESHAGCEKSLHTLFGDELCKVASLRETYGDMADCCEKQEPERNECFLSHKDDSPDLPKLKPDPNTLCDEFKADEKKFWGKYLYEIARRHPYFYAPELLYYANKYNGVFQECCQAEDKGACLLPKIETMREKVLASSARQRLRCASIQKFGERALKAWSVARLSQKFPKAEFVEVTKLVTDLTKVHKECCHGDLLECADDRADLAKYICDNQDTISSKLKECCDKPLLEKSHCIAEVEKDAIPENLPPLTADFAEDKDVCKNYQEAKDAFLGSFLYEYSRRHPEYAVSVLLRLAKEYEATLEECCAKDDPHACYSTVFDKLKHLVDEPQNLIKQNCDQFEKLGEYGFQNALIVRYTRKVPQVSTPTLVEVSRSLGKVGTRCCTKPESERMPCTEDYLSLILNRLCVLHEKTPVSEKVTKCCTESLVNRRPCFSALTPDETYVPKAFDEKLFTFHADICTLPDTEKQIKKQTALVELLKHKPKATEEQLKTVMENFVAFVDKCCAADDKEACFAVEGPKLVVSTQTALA

Compound: N=C(N)NCCC[C@H](N)C(=O)O [Arginine 4%, arginine]
- Zone of Inhibition (C. minutissimum): 0 mm
- Zone of Inhibition (S. aureus; Table 3, sample type not given): 0 mm

Compound: NCCCC[C@H](N)C(=O)O [Lysine 4%, lysine]
- Zone of Inhibition (C. minutissimum): 0 mm
- Zone of Inhibition (S. aureus; Table 3, sample type not given): 0 mm

Compound: Cl.NCCCC[C@H](N)C(=O)O [Lysine-HCl 23.2%, lysine hydrochloride]
- Zone of Inhibition (C. minutissimum): 0 mm
- Zone of Inhibition (S. epider.; Dry Sample, As is): 0 mm
- Zone of Inhibition (S. epider.; Wet Sample, As is): 0 mm
- Zone of Inhibition (C. xerosis; Dry Sample, As is): 0 mm
- Zone of Inhibition (C. xerosis; Wet Sample, As is): 0 mm
- Zone of Inhibition (S. aureus; Dry Sample, As is, 20 h 37° C.): 0 mm
- Zone of Inhibition (S. aureus; Table 3, sample type not given): 0 mm
- Zone of Inhibition (S. aureus; Wet Sample, As is, 20 h 37° C.): 0 mm

Compound: [Cl-].[Cl-].[OH-].[OH-].[OH-].[OH-].[OH-].[OH-].[OH-].[OH-].[Zn+2].[Zn+2].[Zn+2].[Zn+2].[Zn+2] [TBZC (4%), Tetrabasic zinc chloride]
- Zone of Inhibition (S. aureus; Table 3, Mixture): 6 mm
- Zone of Inhibition (S. aureus; Table 3, Supernat): 6 mm

Compound: NCCCCC(N)C(=O)O.NCCCCC(N)C(=O)O.O.O.[Cl-].[Cl-].[Zn+2] (centres unmarked) [ZLC, [Zn(Lysine)2Cl]^+Cl^−.2H2O]
- flocculation of proteins ([1]; proteins such as BSA): ability to flocculate proteins
- observation [1, 4]: slightly cloudy
- pH [1, 4]: 8
- Turbidity (NTU) ([1]; sample 2: 1% BSA, pH 7.2): >1000 NTU
- observation ([1]; sample 2: 1% BSA, pH 7.2): precipitate
- pH ([1]; sample 2: 1% BSA, pH 7.2): 8.2
- Turbidity (NTU) [1, 5]: >1000 NTU
- observation [1, 5]: precipitate
- pH [1, 5]: 8
- initial pH ([2]; 5.78 mg/ml): 8
- pH after aging ([2]; 5.78 mg/ml): 8
- turbidity after aging (NTU) ([2]; 5.78 mg/ml): >1000 NTU
- initial pH ([2]; 11.56 mg/ml): 7.8
- pH after aging ([2]; 11.56 mg/ml): 7.8
- turbidity after aging (NTU) ([2]; 11.56 mg/ml): >1000 NTU
- initial pH ([2]; 23.125 mg/ml): 7.7
- initial turbidity (NTU) ([2]; 23.125 mg/ml): 0.7 NTU
- pH after aging ([2]; 23.125 mg/ml): 7.7
- initial pH ([2]; 46.25 mg/ml): 7.4
- initial turbidity (NTU) ([2]; 46.25 mg/ml): 1.5 NTU
- pH after aging ([2]; 46.25 mg/ml): 7.4
- turbidity after aging (NTU) ([2]; 46.25 mg/ml): 2.8 NTU
- initial pH ([2]; 92.5 mg/ml): 7
- initial turbidity (NTU) ([2]; 92.5 mg/ml): 2.8 NTU
- pH after aging ([2]; 92.5 mg/ml): 7
- turbidity after aging (NTU) ([2]; 92.5 mg/ml): 2.6 NTU
- initial pH ([2]; 185 mg/ml): 6.8
- initial turbidity (NTU) ([2]; 185 mg/ml): 4.7 NTU
- pH after aging ([2]; 185 mg/ml): 6.8
- turbidity after aging (NTU) ([2]; 185 mg/ml): 4.1 NTU
- observation as the 185 mg/ml solution is diluted ([2]; diluted several-fold, 37° C.): white precipitate forms
- stability of the complex upon dilution ([2]; precipitates of 8×, 16×, 32× dilutions identified as crystalline ZnO by PXRD, Lysine.HCl.2H2O from supernatant): disassociates upon dilution, with consequent precipitation of zinc oxide

Compound: [O]=[Zn] [ZnO(4%), zinc oxide]
- Free Zn [3]: 11 ppm
- Zone of Inhibition (S. epider.; Dry Sample, Mixture): 10 mm
- Zone of Inhibition (S. epider.; Dry Sample, Supernatant): 0 mm
- Zone of Inhibition (S. epider.; Wet Sample, Mixture): 12 mm
- Zone of Inhibition (S. epider.; Wet Sample, Supernatant): 0 mm
- Zone of Inhibition (C. xerosis; Dry Sample, Mixture): 0 mm
- Zone of Inhibition (C. xerosis; Dry Sample, Supernatant): 0 mm
- Zone of Inhibition (C. xerosis; Wet Sample, Mixture): 0 mm
- Zone of Inhibition (C. xerosis; Wet Sample, Supernatant): 0 mm
- Zone of Inhibition (S. aureus; Dry Sample, Mixture, 20 h 37° C.): 7 mm
- Zone of Inhibition (S. aureus; Dry Sample, Supernatant, 20 h 37° C.): 0 mm
- Zone of Inhibition (S. aureus; Wet Sample, Mixture, 20 h 37° C.): 7 mm
- Zone of Inhibition (S. aureus; Wet Sample, Supernatant, 20 h 37° C.): 0 mm
